From ChEMBL document CHEMBL1201861, “Genomics of Drug Sensitity in Cancer screening data, Wellcome Trust Sanger Institute”

What was measured:
Test in all cases: cells
[1] = test system: CW-2; type: functional, cell-based, Homo sapiens; settings: Homo sapiens, CW-2;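 note: growth inhibition of CW-2 cells, read out by a cell viability assay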
Description: SANGER: Inhibition of human CW-2 cell growth in a cell viability assay.

[2] = test system: Calu-6; type: functional, cell-based, Homo sapiens; settings: Homo sapiens, Calu-6;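 note: growth of human Calu-6 cells, read out by a cell viability assay, IC50 marking inhibition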
Description: SANGER: Inhibition of human Calu-6 cell growth in a cell viability assay.

[3] = test system: D-502MG; type: functional, cell-based, Homo sapiens; settings: Homo sapiens, D-502MG
Description: SANGER: Inhibition of human D-502MG cell growth in a cell viability assay.

[4] = test system: DSH1; type: functional, cell-based; settings: Homo sapiens;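 note: growth inhibition of human DSH1 cells, measured with a cell viability readout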
Description: SANGER: Inhibition of human DSH1 cell growth in a cell viability assay.

[5] = test system: EKVX; type: functional, cell-based, Homo sapiens; settings: Homo sapiens, EKVX;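 note: growth inhibition of human EKVX cells, read out with a cell viability assay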
Description: SANGER: Inhibition of human EKVX cell growth in a cell viability assay.

[6] = test system: EW-1; type: functional, cell-based, Homo sapiens; settings: Homo sapiens, EW-1;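 note: growth inhibition of the human EW-1 cell line, read out by a cell viability assay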
Description: SANGER: Inhibition of human EW-1 cell growth in a cell viability assay.

[7] = test system: GCIY; type: functional, cell-based, Homo sapiens; settings: Homo sapiens, GCIY;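 note: growth inhibition of the human GCIY cell line, read out by a cell viability assay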
Description: SANGER: Inhibition of human GCIY cell growth in a cell viability assay.

[8] = test system: GOTO; type: functional, cell-based, Homo sapiens; settings: Homo sapiens, GOTO;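 note: growth inhibition of GOTO cells, read out by a cell viability assay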
Description: SANGER: Inhibition of human GOTO cell growth in a cell viability assay.

[9] = test system: GT3TKB; type: functional, cell-based, Homo sapiens; settings: Homo sapiens, GT3TKB;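 note: growth inhibition of the cell line, read out with a cell viability assay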
Description: SANGER: Inhibition of human GT3TKB cell growth in a cell viability assay.

[10] = test system: HCE-4; type: functional, cell-based; settings: Homo sapiens;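 note: cell viability assay measuring inhibition of growth in the human HCE-4 cell line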
Description: SANGER: Inhibition of human HCE-4 cell growth in a cell viability assay.

[11] = test system: HD-MY-Z; type: functional, cell-based, Homo sapiens; settings: Homo sapiens, HD-MY-Z;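 note: growth inhibition of HD-MY-Z cells, read out with a cell viability assay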
Description: SANGER: Inhibition of human HD-MY-Z cell growth in a cell viability assay.

[12] = test system: HL-60; type: functional, cell-based, Homo sapiens; settings: Homo sapiens, HL-60;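 note: growth inhibition of human HL-60 cells, read out with a cell viability assay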
Description: SANGER: Inhibition of human HL-60 cell growth in a cell viability assay.

[13] = test system: HT-144; type: functional, cell-based, Homo sapiens; settings: Homo sapiens, HT-144
Description: SANGER: Inhibition of human HT-144 cell growth in a cell viability assay.

[14] = test system: KARPAS-299; type: functional, cell-based, Homo sapiens; settings: Homo sapiens, KARPAS-299
Description: SANGER: Inhibition of human KARPAS-299 cell growth in a cell viability assay.

[15] = test system: KINGS-1; type: functional, cell-based, Homo sapiens; settings: Homo sapiens, KINGS-1;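 note: cell viability assay measuring suppression of KINGS-1 cell growth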
Description: SANGER: Inhibition of human KINGS-1 cell growth in a cell viability assay.

[16] = test system: KM-H2; type: functional, cell-based, Homo sapiens; settings: Homo sapiens, KM-H2;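 note: growth inhibition of KM-H2 cells, read out by a cell viability assay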
Description: SANGER: Inhibition of human KM-H2 cell growth in a cell viability assay.

[17] = test system: KS-1; type: functional, cell-based; settings: Homo sapiens;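 note: growth inhibition of KS-1 cells, read out with a cell viability assay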
Description: SANGER: Inhibition of human KS-1 cell growth in a cell viability assay.

[18] = test system: KURAMOCHI; type: functional, cell-based, Homo sapiens; settings: Homo sapiens, KURAMOCHI;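 note: growth inhibition of KURAMOCHI cells, read out with a cell viability assay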
Description: SANGER: Inhibition of human KURAMOCHI cell growth in a cell viability assay.

[19] = test system: LB2241-RCC; type: functional, cell-based, Homo sapiens; settings: Homo sapiens, LB2241-RCC;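 note: cell viability assay measuring how strongly the cultured human renal carcinoma line is prevented from growing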
Description: SANGER: Inhibition of human LB2241-RCC cell growth in a cell viability assay.

[20] = test system: LB2518-MEL; type: functional, cell-based; settings: Homo sapiens;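 note: growth inhibition of human LB2518-MEL cells, measured with a cell viability assay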
Description: SANGER: Inhibition of human LB2518-MEL cell growth in a cell viability assay.

[21] = test system: LB996-RCC; type: functional, cell-based, Homo sapiens; settings: Homo sapiens, LB996-RCC
Description: SANGER: Inhibition of human LB996-RCC cell growth in a cell viability assay.

[22] = test system: LNCaP-Clone-FGC; type: functional, cell-based, Homo sapiens; settings: Homo sapiens, LNCaP-Clone-FGC
Description: SANGER: Inhibition of human LNCaP-Clone-FGC cell growth in a cell viability assay.

[23] = test system: MHH-PREB-1; type: functional, cell-based, Homo sapiens; settings: Homo sapiens, MHH-PREB-1;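 note: cell viability assay measuring inhibition of proliferation of human MHH-PREB-1 cells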
Description: SANGER: Inhibition of human MHH-PREB-1 cell growth in a cell viability assay.

[24] = test system: MLMA; type: functional, cell-based, Homo sapiens; settings: Homo sapiens, MLMA;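 note: growth inhibition of MLMA cells (human), determined through a cell viability readout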
Description: SANGER: Inhibition of human MLMA cell growth in a cell viability assay.

[25] = test system: MN-60; type: functional, cell-based, Homo sapiens; settings: Homo sapiens, MN-60;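 note: growth inhibition of the MN-60 cell line, determined with a cell viability assay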
Description: SANGER: Inhibition of human MN-60 cell growth in a cell viability assay.

[26] = test system: NB13; type: functional, cell-based, Homo sapiens; settings: Homo sapiens, NB13;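 note: cell viability readout measuring growth inhibition of human NB13 cells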
Description: SANGER: Inhibition of human NB13 cell growth in a cell viability assay.

[27] = test system: NCI-H1304; type: functional, cell-based, Homo sapiens; settings: Homo sapiens, NCI-H1304;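 note: growth inhibition of the cancer cell line, measured in a cell viability assay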
Description: SANGER: Inhibition of human NCI-H1304 cell growth in a cell viability assay.

[28] = test system: NCI-H1581; type: functional, cell-based, Homo sapiens; settings: Homo sapiens, NCI-H1581;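 note: cell growth inhibition read out by a viability assay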
Description: SANGER: Inhibition of human NCI-H1581 cell growth in a cell viability assay.

[29] = test system: NCI-H1838; type: functional, cell-based, Homo sapiens; settings: Homo sapiens, NCI-H1838;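 note: growth inhibition of NCI-H1838 cells, determined with a cell viability readout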
Description: SANGER: Inhibition of human NCI-H1838 cell growth in a cell viability assay.

[30] = test system: NCI-H2126; type: functional, cell-based, Homo sapiens; settings: Homo sapiens, NCI-H2126;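 note: growth inhibition of the cancer cell line, determined with a cell viability readout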
Description: SANGER: Inhibition of human NCI-H2126 cell growth in a cell viability assay.

[31] = test system: NCI-H446; type: functional, cell-based, Homo sapiens; settings: Homo sapiens, NCI-H446;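 note: growth inhibition of NCI-H446 cells determined by a cell viability assay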
Description: SANGER: Inhibition of human NCI-H446 cell growth in a cell viability assay.

[32] = test system: NCI-H747; type: functional, cell-based, Homo sapiens; settings: Homo sapiens, NCI-H747;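 note: growth inhibition of human NCI-H747 cells, read out by a cell viability assay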
Description: SANGER: Inhibition of human NCI-H747 cell growth in a cell viability assay.

[33] = test system: NKM-1; type: functional, cell-based, Homo sapiens; settings: Homo sapiens, NKM-1;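 note: growth inhibition of NKM-1 cells, read out with a cell viability assay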
Description: SANGER: Inhibition of human NKM-1 cell growth in a cell viability assay.

[34] = test system: NMC-G1; type: functional, cell-based, Homo sapiens; settings: Homo sapiens, NMC-G1;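 note: growth inhibition of the NMC-G1 cell line, measured with a cell viability read-out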
Description: SANGER: Inhibition of human NMC-G1 cell growth in a cell viability assay.

[35] = test system: NOMO-1; type: functional, cell-based, Homo sapiens; settings: Homo sapiens, NOMO-1;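 note: growth inhibition of human NOMO-1 cells measured by a cell viability assay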
Description: SANGER: Inhibition of human NOMO-1 cell growth in a cell viability assay.

[36] = test system: OMC-1; type: functional, cell-based, Homo sapiens; settings: Homo sapiens, OMC-1;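 note: growth inhibition of the OMC-1 cell line, measured by a cell viability assay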
Description: SANGER: Inhibition of human OMC-1 cell growth in a cell viability assay.

[37] = test system: OS-RC-2; type: functional, cell-based, Homo sapiens; settings: Homo sapiens, OS-RC-2;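 note: growth inhibition of human OS-RC-2 cells, measured by a cell viability assay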
Description: SANGER: Inhibition of human OS-RC-2 cell growth in a cell viability assay.

[38] = test system: RPMI-8226; type: functional, cell-based, Homo sapiens; settings: Homo sapiens, RPMI-8226
Description: SANGER: Inhibition of human RPMI-8226 cell growth in a cell viability assay.

[39] = test system: SK-UT-1; type: functional, cell-based, Homo sapiens; settings: Homo sapiens, SK-UT-1;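 note: growth inhibition of SK-UT-1 cells, measured by a cell viability assay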
Description: SANGER: Inhibition of human SK-UT-1 cell growth in a cell viability assay.

[40] = test system: SW982; type: functional, cell-based; settings: Homo sapiens;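 note: growth inhibition of SW982 cells, read out with a cell viability assay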
Description: SANGER: Inhibition of human SW982 cell growth in a cell viability assay.

[41] = test system: TE-1; type: functional, cell-based, Homo sapiens; settings: Homo sapiens, TE-1;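 note: growth inhibition of the human TE-1 cell line, read out with a cell viability assay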
Description: SANGER: Inhibition of human TE-1 cell growth in a cell viability assay.

[42] = test system: A253 cell line; type: functional, cell-based, Homo sapiens; settings: Homo sapiens, A253;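 note: growth inhibition of A253 cells, read out with a cell viability assay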
Description: SANGER: Inhibition of human A253 cell growth in a cell viability assay.

[43] = test system: A3-KAW; type: functional, cell-based, Homo sapiens; settings: Homo sapiens, A3-KAW;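 note: growth inhibition of human A3-KAW cells, read out with a cell viability assay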
Description: SANGER: Inhibition of human A3-KAW cell growth in a cell viability assay.

[44] = test system: ALL-PO; type: functional, cell-based, Homo sapiens; settings: Homo sapiens, ALL-PO;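 note: growth inhibition of ALL-PO cells, read out by a cell viability assay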
Description: SANGER: Inhibition of human ALL-PO cell growth in a cell viability assay.

[45] = test system: AM-38; type: functional, cell-based, Homo sapiens; settings: Homo sapiens, AM-38;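 note: growth inhibition of AM-38 cells of human origin, read out by a cell viability assay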
Description: SANGER: Inhibition of human AM-38 cell growth in a cell viability assay.

[46] = test system: TE-6; type: functional, cell-based, Homo sapiens; settings: Homo sapiens, TE-6;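 note: growth inhibition of TE-6 cells, read out with a cell viability assay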
Description: SANGER: Inhibition of human TE-6 cell growth in a cell viability assay.

[47] = test system: TGW; type: functional, cell-based, Homo sapiens; settings: Homo sapiens, TGW;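 note: growth inhibition of human TGW cells, read out with a cell viability assay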
Description: SANGER: Inhibition of human TGW cell growth in a cell viability assay.

[48] = test system: COLO-320-HSR; type: functional, cell-based, Homo sapiens; settings: Homo sapiens, COLO-320-HSR;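 note: growth inhibition of COLO-320-HSR cells, determined with a cell viability assay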
Description: SANGER: Inhibition of human COLO-320-HSR cell growth in a cell viability assay.

CC1(C)CCC(c2ccc(Cl)cc2)=C(CN2CCN(c3ccc(C(=O)NS(=O)(=O)c4ccc(N[C@H](CCN5CCOCC5)CSc5ccccc5)c(S(=O)(=O)C(F)(F)F)c4)cc3)CC2)C1 [NAVITOCLAX]
IC50 [1]: > 2000 nM
IC50 [2]: > 2000 nM
IC50 [3]: > 2000 nM
IC50 [4]: > 2000 nM
IC50 [5]: > 2000 nM
IC50 [6]: > 2000 nM
IC50 [7]: > 2000 nM
IC50 [8]: > 2000 nM
IC50 [9]: > 2000 nM
IC50 [10]: > 2000 nM
IC50 [11]: > 2000 nM
IC50 [12]: 29.1 nM
IC50 [13]: > 2000 nM
IC50 [14]: > 2000 nM
IC50 [15]: > 2000 nM
IC50 [16]: > 2000 nM
IC50 [17]: > 2000 nM
IC50 [18]: > 2000 nM
IC50 [19]: > 2000 nM
IC50 [20]: > 2000 nM
IC50 [21]: > 2000 nM
IC50 [22]: > 2000 nM
IC50 [23]: > 2000 nM
IC50 [24]: 1970 nM
IC50 [25]: > 2000 nM
IC50 [26]: 82 nM
IC50 [27]: 462 nM
IC50 [28]: > 2000 nM
IC50 [29]: > 2000 nM
IC50 [30]: > 2000 nM
IC50 [31]: > 2000 nM
IC50 [32]: > 2000 nM
IC50 [33]: 17 nM
IC50 [34]: 811 nM
IC50 [35]: > 2000 nM
IC50 [36]: 1860 nM
IC50 [37]: > 2000 nM
IC50 [38]: 457 nM
IC50 [39]: > 2000 nM
IC50 [40]: > 2000 nM
IC50 [41]: > 2000 nM
IC50 [42]: > 2000 nM
IC50 [43]: > 2000 nM
IC50 [44]: 220 nM
IC50 [45]: > 2000 nM
IC50 [46]: > 2000 nM
IC50 [47]: 46.3 nM
IC50 [48]: > 2000 nM

CN(C)CCOc1ccc(-c2nc(-c3ccncc3)c(-c3ccc4c(c3)CC/C4=N\O)[nH]2)cc1 [SB590885]
IC50 [1]: > 5000 nM
IC50 [2]: > 5000 nM
IC50 [3]: > 5000 nM
IC50 [4]: > 5000 nM
IC50 [5]: > 5000 nM
IC50 [6]: > 5000 nM
IC50 [7]: > 5000 nM
IC50 [8]: > 5000 nM
IC50 [9]: > 5000 nM
IC50 [10]: > 5000 nM
IC50 [11]: > 5000 nM
IC50 [12]: > 5000 nM
IC50 [13]: 435 nM
IC50 [14]: > 5000 nM
IC50 [15]: > 5000 nM
IC50 [16]: > 5000 nM
IC50 [17]: > 5000 nM
IC50 [18]: > 5000 nM
IC50 [19]: > 5000 nM
IC50 [20]: > 5000 nM
IC50 [21]: > 5000 nM
IC50 [22]: > 5000 nM
IC50 [23]: > 5000 nM
IC50 [24]: > 5000 nM
IC50 [25]: > 5000 nM
IC50 [26]: > 5000 nM
IC50 [27]: > 5000 nM
IC50 [28]: > 5000 nM
IC50 [29]: > 5000 nM
IC50 [30]: > 5000 nM
IC50 [31]: > 5000 nM
IC50 [32]: > 5000 nM
IC50 [33]: 1670 nM
IC50 [34]: > 5000 nM
IC50 [35]: > 5000 nM
IC50 [36]: > 5000 nM
IC50 [37]: > 5000 nM
IC50 [38]: > 5000 nM
IC50 [40]: > 5000 nM
IC50 [41]: > 5000 nM
IC50 [42]: > 5000 nM
IC50 [43]: > 5000 nM
IC50 [44]: > 5000 nM
IC50 [45]: > 5000 nM
IC50 [46]: > 5000 nM
IC50 [47]: > 5000 nM
IC50 [48]: > 5000 nM
